According to US20180280377A1, “Imidazo[4,5-c]quinolin-2-one Compounds and Their Use in Treating Cancer” (ASTRAZENECA AB, priority 2015, published 2018):

What was measured:
Format in all cases: cell-based
[1] = biological target: T1, ATR (Homo sapiens, UniProt Q13535); test: ATR cellular potency assay (pChk1 Ser345 in HT29 cells after 4NQO); conditions: pChk1 (Ser 345); Table 2; read-out: Assay b) ATR Cell IC50
T1 construct: endogenous in cells; host or cells: HT29 cells (ECACC #85061109)

[2] = biological target: PI3Kα (Homo sapiens, UniProt P42336); test: PI3K cellular potency assay (phospho-Akt T308 in BT474 cells, ELISA); conditions: 2 h, phospho-Akt (T308); Table 2; read-out: Assay c) PI3Kα Cell IC50
Experimental: The following assays were used to measure the effects of the compounds of the present invention: a) ATM cellular potency assay; b) PI3K cellular potency assay; c) mTOR cellular potency assay; d) ATR cellular potency assay. During the description of the assays, generally: • i. […] IC50 values were calculated using a smart fitting model in Genedata.
This assay was used to measure PI3K-α inhibition in cells. PDK1 was identified as the upstream activation loop kinase of protein kinase B (Akt1), which is essential for the activation of PKB. Activation of the lipid kinase phosphoinositide 3 kinase (PI3K) is critical for the activation of PKB by PDK1.
Following ligand stimulation of receptor tyrosine kinases, PI3K is activated, which converts PIP2 to PIP3, which is bound by the PH domain of PDK1 resulting in recruitment of PDK1 to the plasma membrane where it phosphorylates AKT at Thr308 in the activation loop.
The aim of this cell-based mode of action assay is to identify compounds that inhibit PDK activity or recruitment of PDK1 to membrane by inhibiting PI3K activity. Phosphorylation of phospho-Akt (T308) in BT474c cells following treatment with compounds for 2 h is a direct measure of PDK1 and indirect measure of PI3K activity.
The following morning compounds in 100% DMSO were added to assay plates by acoustic dispensing.
Plates were incubated over night at 4° C. The next day the plates were washed with PBS buffer containing 0.05% Tween 20 and further incubated with a mouse monoclonal anti-phospho AKT T308 for 2 h. Plates were washed again as above before addition of a horse anti-mouse-HRP conjugated secondary antibody. […] The developed fluorescent product was stopped after 60 minutes by addition of Stop solution to the wells.

[3] = biological target: T2, ATM (Homo sapiens, UniProt Q13315); test: ATM cellular potency assay (pATM Ser1981 in irradiated HT29 cells); conditions: 1 h compound, X-ray irradiation, pATM (Ser1981); Table 2; read-out: Assay a) ATM Cell IC50
T2 construct: endogenous in cells; host or cells: HT29 cells (ECACC #85061109)

T1 sequence (Q13535 whole entry): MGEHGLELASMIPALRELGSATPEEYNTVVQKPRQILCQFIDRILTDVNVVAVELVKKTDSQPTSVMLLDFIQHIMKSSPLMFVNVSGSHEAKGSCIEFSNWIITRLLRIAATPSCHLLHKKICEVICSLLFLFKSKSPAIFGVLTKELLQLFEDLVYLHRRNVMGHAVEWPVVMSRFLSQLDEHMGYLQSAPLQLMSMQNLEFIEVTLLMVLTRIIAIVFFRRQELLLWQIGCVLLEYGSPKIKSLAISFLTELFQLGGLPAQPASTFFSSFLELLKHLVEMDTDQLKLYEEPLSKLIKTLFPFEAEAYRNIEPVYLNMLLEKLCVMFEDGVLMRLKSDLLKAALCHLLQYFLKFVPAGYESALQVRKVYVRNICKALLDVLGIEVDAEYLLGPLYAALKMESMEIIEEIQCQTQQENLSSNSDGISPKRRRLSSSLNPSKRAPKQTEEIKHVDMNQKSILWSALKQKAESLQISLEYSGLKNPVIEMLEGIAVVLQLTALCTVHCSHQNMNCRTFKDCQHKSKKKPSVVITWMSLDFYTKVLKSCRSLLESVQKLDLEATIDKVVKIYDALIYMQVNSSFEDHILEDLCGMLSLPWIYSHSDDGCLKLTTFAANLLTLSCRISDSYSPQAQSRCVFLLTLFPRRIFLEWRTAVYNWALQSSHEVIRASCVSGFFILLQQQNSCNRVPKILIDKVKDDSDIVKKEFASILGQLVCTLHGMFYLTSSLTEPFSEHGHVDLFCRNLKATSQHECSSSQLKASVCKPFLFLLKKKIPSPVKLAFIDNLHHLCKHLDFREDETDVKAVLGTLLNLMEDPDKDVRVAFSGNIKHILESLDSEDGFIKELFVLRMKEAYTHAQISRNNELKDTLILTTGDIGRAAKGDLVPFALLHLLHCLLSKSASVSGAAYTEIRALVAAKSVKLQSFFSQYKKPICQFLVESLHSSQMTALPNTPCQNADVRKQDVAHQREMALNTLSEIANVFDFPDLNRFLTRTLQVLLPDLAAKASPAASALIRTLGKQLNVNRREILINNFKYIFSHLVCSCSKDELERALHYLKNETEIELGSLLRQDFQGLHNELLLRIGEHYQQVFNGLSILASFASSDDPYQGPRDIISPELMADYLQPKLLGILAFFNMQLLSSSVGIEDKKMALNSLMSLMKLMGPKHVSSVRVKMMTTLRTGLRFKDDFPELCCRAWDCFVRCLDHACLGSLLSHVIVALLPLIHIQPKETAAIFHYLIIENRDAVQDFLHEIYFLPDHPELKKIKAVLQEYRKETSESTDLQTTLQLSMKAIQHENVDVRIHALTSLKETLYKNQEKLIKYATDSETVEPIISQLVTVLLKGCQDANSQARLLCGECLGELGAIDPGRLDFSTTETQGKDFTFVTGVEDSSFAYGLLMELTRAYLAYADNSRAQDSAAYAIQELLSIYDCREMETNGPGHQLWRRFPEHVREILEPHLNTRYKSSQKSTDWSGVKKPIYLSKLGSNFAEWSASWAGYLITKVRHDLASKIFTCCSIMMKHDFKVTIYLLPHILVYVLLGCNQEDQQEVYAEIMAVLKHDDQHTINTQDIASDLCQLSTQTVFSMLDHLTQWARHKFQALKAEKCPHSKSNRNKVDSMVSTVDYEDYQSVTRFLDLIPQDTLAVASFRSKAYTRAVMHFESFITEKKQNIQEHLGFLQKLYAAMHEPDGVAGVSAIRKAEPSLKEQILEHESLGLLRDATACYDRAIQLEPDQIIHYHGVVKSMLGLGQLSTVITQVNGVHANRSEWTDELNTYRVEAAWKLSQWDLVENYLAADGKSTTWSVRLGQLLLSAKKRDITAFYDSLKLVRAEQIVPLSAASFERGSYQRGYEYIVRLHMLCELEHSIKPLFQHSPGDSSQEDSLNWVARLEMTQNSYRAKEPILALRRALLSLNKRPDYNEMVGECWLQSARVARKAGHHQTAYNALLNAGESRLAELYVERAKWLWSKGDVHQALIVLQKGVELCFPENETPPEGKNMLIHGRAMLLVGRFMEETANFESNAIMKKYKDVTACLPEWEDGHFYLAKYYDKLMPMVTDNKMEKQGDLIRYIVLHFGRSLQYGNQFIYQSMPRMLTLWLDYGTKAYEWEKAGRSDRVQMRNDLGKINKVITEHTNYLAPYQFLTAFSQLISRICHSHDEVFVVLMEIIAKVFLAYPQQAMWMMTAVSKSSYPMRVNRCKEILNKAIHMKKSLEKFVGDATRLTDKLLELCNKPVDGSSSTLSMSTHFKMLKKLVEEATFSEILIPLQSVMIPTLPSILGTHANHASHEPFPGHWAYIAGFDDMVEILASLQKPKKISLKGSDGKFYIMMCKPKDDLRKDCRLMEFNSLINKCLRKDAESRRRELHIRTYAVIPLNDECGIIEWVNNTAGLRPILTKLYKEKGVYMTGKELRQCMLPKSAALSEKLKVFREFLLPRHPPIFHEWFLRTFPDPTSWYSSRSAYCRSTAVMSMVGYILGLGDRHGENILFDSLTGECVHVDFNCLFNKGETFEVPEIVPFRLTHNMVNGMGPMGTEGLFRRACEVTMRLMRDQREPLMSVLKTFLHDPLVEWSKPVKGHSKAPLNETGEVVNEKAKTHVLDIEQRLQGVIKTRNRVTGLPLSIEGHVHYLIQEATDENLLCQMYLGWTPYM
T1 sequence (Q8WXE1 whole entry partner): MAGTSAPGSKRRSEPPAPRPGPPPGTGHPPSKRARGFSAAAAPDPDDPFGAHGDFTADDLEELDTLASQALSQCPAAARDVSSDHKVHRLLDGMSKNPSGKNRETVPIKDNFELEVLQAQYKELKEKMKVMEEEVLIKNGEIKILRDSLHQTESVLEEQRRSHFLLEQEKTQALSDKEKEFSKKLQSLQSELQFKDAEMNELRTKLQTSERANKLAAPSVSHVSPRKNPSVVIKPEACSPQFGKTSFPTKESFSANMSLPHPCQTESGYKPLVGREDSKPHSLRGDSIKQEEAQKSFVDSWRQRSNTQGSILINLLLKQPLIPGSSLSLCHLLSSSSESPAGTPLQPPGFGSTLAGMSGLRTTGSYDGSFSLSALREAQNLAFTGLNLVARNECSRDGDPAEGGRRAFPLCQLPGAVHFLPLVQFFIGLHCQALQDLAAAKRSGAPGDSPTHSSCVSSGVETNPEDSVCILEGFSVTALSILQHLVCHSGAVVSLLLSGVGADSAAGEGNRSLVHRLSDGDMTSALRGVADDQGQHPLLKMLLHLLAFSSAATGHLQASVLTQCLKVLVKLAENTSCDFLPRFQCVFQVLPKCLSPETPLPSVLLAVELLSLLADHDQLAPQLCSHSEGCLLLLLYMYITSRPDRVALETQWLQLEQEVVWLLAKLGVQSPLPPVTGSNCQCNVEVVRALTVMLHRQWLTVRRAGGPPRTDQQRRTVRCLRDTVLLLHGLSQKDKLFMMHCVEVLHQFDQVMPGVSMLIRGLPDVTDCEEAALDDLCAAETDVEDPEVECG

Compound	IC50 [1] [nM]	IC50 [2] [nM]	IC50 [3] [nM]
CO[C@H]1C[C@@H](n2c(=O)n(C)c3cnc4cc(F)c(-c5ccc(N6CCC(N(C)C)CC6)nc5)cc4c32)C1 [Example 42, 8-[6-[4-(dimethylamino)-1-piperidyl]-3-pyridyl]-7-fluoro-1-(cis-3-methoxycyclobutyl)-3-methyl-imidazo[4,5-c]quinolin-2-one]	> 30000	> 30000	1.54
CO[C@H]1CC[C@H](n2c(=O)n(C)c3cnc4ccc(-c5ccc(N6CCC(N(C)C)CC6)nc5)cc4c32)C1 (single isomer, unassigned) [Example 32, 8-[6-[4-(dimethylamino)-1-piperidyl]-3-pyridyl]-1-[trans-3-methoxycyclopentyl]-3-methyl-imidazo[4,5-c]quinolin-2-one]	> 30000	663	0.307
CO[C@H]1C[C@@H](n2c(=O)n(C)c3cnc4cc(F)c(-c5ccc(N6CC(N(C)C)C6)nc5)cc4c32)C1 [Example 31, 8-[6-[3-(dimethylamino)azetidin-1-yl]-3-pyridyl]-7-fluoro-1-(cis-3-methoxycyclobutyl)-3-methyl-imidazo[4,5-c]quinolin-2-one]	> 30000	> 30000	33.8
CO[C@H]1C[C@@H](n2c(=O)n(C)c3cnc4ccc(-c5ccc(N6CCC(N(C)C)CC6)nc5)cc4c32)C1 [Example 36, 8-[6-[4-(dimethylamino)-1-piperidyl]-3-pyridyl]-1-(cis-3-methoxycyclobutyl)-3-methyl-imidazo[4,5-c]quinolin-2-one]	> 30000	987	0.357
CN(C)[C@@H]1CCN(c2ccc(-c3ccc4ncc5c(c4c3)n([C@@H]3CCCOC3)c(=O)n5C)cn2)C1 [Example 7]	1420	1220	0.626
CN(C)[C@H]1CCN(c2ccc(-c3cc4c(cc3F)ncc3c4n([C@H]4CCCOC4)c(=O)n3C)cn2)C1 [Example 20]	> 30000	> 10000	36.5
CNC1CCN(c2ccc(-c3cc4c(cc3F)ncc3c4n([C@H]4C[C@@H](OC)C4)c(=O)n3C)cn2)CC1 [Example 57, 7-Fluoro-1-(cis-3-methoxycyclobutyl)-3-methyl-8-[6-[4-(methylamino)-1-piperidyl]-3-pyridyl]imidazo[4,5-c]quinolin-2-one]	> 30000	> 30000	1.16
CNC1CCN(c2ccc(-c3ccc4ncc5c(c4c3)n([C@H]3C[C@@H](OC)C3)c(=O)n5C)cn2)CC1 [Example 60, 1-(cis-3-methoxycyclobutyl)-3-methyl-8-[6-[4-(methylamino)-1-piperidyl]-3-pyridyl]imidazo[4,5-c]quinolin-2-one]	> 30000	292	0.502
